Reference: article PMC7509924, “Neuroprotective effect of Angelica gigas root in a mouse model of ischemic brain injury through MAPK signaling pathway regulation” (Chinese Medicine, 2020)

What was measured:
[1] = Pharmacokinetics of decursin in plasma after oral administration of RAGE; format: in vivo, SD rats
Description: Quantification of decursin was performed using an Accela LC system (Thermo Fisher Scientific; MA, USA) equipped with an autosampler, degasser, and quaternary solvent pump. Decursin and IS were separated on a Hypersil GOLD C18 column (2.1 mm × 100 mm, 1.9 μm; Thermo Fisher Scientific, MA, USA) at 35℃. The flow rate was set at 300 μL/min with an injection volume of 5 μL. The mobile phase consisted of water (containing 0.1% formic acid, A) and acetonitrile (B) and the gradient elution applied was as follows: 30–60% (B) for 0–4 min, 60% (B) for 0.5 min, and then re-equilibrated to 30% (B) until the end of the analysis. An LCQ Fleet ion-trap mass spectrometer (Thermo Fisher Scientific; MA, USA) was used to detect compounds in the eluent using the electrospray ionization source in the positive-ion mode. MS conditions were as follows: sheath gas (nitrogen), 50 arbitrary units; auxiliary gas (nitrogen), 20 arbitrary units; spray voltage, 5.0 kV; capillary temperature, 300℃; and capillary voltage, 30.0 V. Quantification of the compound was performed in the selective ion monitoring mode at 329 m/z [M+H]^+ for decursin and 415 m/z [M+H]^+ for the IS. Data was processed using Excalibur (v. 2.1.0; Thermo Fisher Scientific, CA, USA). Accurately weighed decursin and IS were dissolved in methanol at a concentration of 100 μg/mL, and the solution was diluted with methanol to prepare working solutions for the construction of the calibration curve. Calibration standards were prepared using 150 μL of blank rat plasma spiked with 10 μL of working solutions and 10 μL of IS solution, which was extracted using ethyl acetate. Plasma samples were prepared using a liquid–liquid extraction method. An aliquot of 150 μL plasma sample was spiked with 10 μL of IS solution and 10 μL of methanol, and 800 μL of ethyl acetate was added. Extraction of decursin and IS was performed by vortex mixing for 2 min at 25℃, followed by centrifugation at 704 × g for 10 min at 20℃. The upper layer (ethyl acetate) was then transferred to a clean 1.5 mL polypropylene tube and evaporated using a nitrogen gas blowing concentrator (MGS–2200; EYELA, Miyagi, Japan). The residue obtained after evaporation was reconstituted in 100 μL of methanol, vortex mixed for 2 min, and centrifuged at 704 × g for 10 min at 20℃. The supernatant was transferred to a glass vial and a 5 μL aliquot was injected into the UPLC–MS/MS system. […] Blood samples ([…]) were collected from a jugular vein in heparinized tubes before the administration, and 0.17, 0.5, 1, 2, 4, 6, 8, 12, 24, or 48 h after intragastric administration. Collected blood samples were immediately centrifuged at 704 × g for 10 min, and 150 μL aliquots of supernatant plasma were transferred to clean tubes and stored at -20 °C until analysis. The pharmacokinetic parameters of decursin were calculated using plasma concentration of decursin versus time data using PKSolver (a free add-in program for Microsoft Excel).

[2] = system: ERK and p38 in colon carcinoma cells; set-up: method as in PMID 21170925; conditions: cited from earlier work
[3] = oral RAGE 100 mg/rat, mean ± SD, n = 6

half-life ([1]; SD, rat, after oral administration of RAGE, as restated in the discussion) [h] | AUC(0-t) ([1]; oral RAGE 100 mg/rat, 0 to 48 h, mean ± SD, n = 6) [ng·h/mL] | MRT last ([1]; oral RAGE 100 mg/rat, 0 to 48 h, mean ± SD, n = 6, read-out: MRT0-t) [h] | concentration at 48 h ([1]; oral RAGE 100 mg/rat, last measured concentration, mean ± SD, n = 6, read-out: Clast) [ng/mL] | AUC(0-inf) [1, 3] [ng·h/mL] | Cmax [1, 3] [ng/mL] | Tmax [1, 3] [h] | half-life [1, 3] [h] | MRT inf ([1]; oral RAGE 100 mg/rat, mean ± SD, n = 6, read-out: MRT0-∞) [h] | Structure (SMILES) | activities of ERK and p38 [2]
8.28 | 1190 ± 324 | 5.43 ± 0.581 | 2.62 ± 0.665 | 1220 ± 326 | 408 ± 85.7 | 1.75 ± 1.25 | 8.28 ± 0.538 | 6.9 ± 0.954 | CC(C)=CC(=O)O[C@H]1Cc2cc3ccc(=O)oc3cc2OC1(C)C [decursin] | inhibited
– | – | – | – | – | – | – | – | – | CC1(C)Oc2cc3oc(=O)ccc3cc2C[C@@H]1O [decursinol] | inhibited
